Test results published in US20200071667A1, “COMPOSITION COMPRISING GLYCYRRHIZIN FOR INDUCING DIFFERENTIATION INTO MYELOID-DERIVED SUPPRESSOR CELL FROM MYELOID CELL” (Konkuk University Glocal Industry-Academic Collabo, priority 2018, published 2020).

Columns and labels:
myeloid cells = assay: Differentiation of LPS-treated mouse myeloid cells treated with glycyrrhizin (in vitro), flow cytometric analysis; format: cell-based, C57BL/6 mice; details: LPS 1 ng/ml, GR 100 μg/ml, incubation 3 days
Experimental: To verify the in vivo experimental results of Example <2-1>, flow cytometric analysis was used to confirm whether differentiation into CD11b+Gr1 myeloid cells or MDSCs from myeloid cells was induced when myeloid cells of mice were treated with glycyrrhizin (GR).
Specifically, myeloid cells were obtained by washing the femoral region of each of 8-week-old male C57BL/6 male mice without specific pathogens with a Roswell Park Memorial Institute (RPMI) 1640 medium in a sterile state using a syringe with a 27-gauge needle. Red blood cells (RBCs) of the collected bone marrow were lysed with an erythrolysis solution, and then the remaining cells were treated with 10% fetal bovine serum, 40 ng/ml of IL-6, and 40 ng/ml of granulocyte-macrophage colony stimulating factor at 37° C. Thereafter, only 1 ng/ml of LPS was treated (LPS group) or 100 μg/ml of GR was additionally treated (LPS+GR group) after LPS treatment. The control was treated with 0.1 ml of PBS. After incubation for 3 days, the same flow cytometric analysis as in Example <2-1> was performed to measure the absolute number of myeloid cells of each group, and then all the obtained data was analyzed using FlowJo software (Tree Star Inc., Ashland, Oreg., USA) to determine the ratio of MDSCs to CD11b+Gr1 myeloid cells.

IL-1β = assay: ELISA of IL-1β in BALF and blood of mice with LPS-induced sepsis; format: in vivo, C57BL/6 mice; details: 12 hours after final injection
Experimental: Specifically, 0.1 ml of phosphate buffered saline (PBS; Gibco, Grand Island, N.Y., USA) was injected intraperitoneally (i.p.) into mice of the control, and 12 hours after the injection, 0.1 ml of PBS was intraperitoneally injected again into each mouse. 1 μg of LPS (Escherichia coli serotype 0111:B4, Sigma-Aldrich, St. Louis, Mo., USA) dissolved in 0.1 ml of PBS was injected intraperitoneally (i.p.) into mice of the LPS group to induce sepsis, and 12 hours after sepsis induction, 0.1 ml of PBS was intraperitoneally injected into each mouse. […]
Specifically, for the analysis of bronchoalveolar lavage fluid and blood, 12 hours after the final injection into mice of each experimental group of Example 1, 1 μg/g of Zoletil®50 (a combined preparation of tiletamine and zolazepam, Virbac Laboratories, Carros, France) as an anesthetic and 0.1 U/g of heparin sodium (Green Cross Co., Yongin, Korea) were intraperitoneally injected into each mouse to minimize the effect of aches or pains on immunity. […] The levels of tumor necrosis factor (TNF)-α, IL-6, and IL-1β in BALF and blood were measured using a mouse enzyme-linked ELISA kit (R&D Systems Inc., Minneapolis, Minn., USA) according to the manufacturer's instructions. Samples collected from each group were analyzed in triplicate.

[1] = test system: Toll-like receptor 4 (TLR4); assay: Immunohistochemical staining for TLR4 in heart or lung tissues; format: in vivo, C57BL/6 mice; details: heart and lungs
Experimental: (§1) Specifically, 0.1 ml of phosphate buffered saline (PBS; Gibco, Grand Island, N.Y., USA) was injected intraperitoneally (i.p.) into mice of the control, and 12 hours after the injection, 0.1 ml of PBS was intraperitoneally injected again into each mouse. 1 μg of LPS (Escherichia coli serotype 0111:B4, Sigma-Aldrich, St. Louis, Mo., USA) dissolved in 0.1 ml of PBS was injected intraperitoneally (i.p.) into mice of the LPS group to induce sepsis, and 12 hours after sepsis induction, 0.1 ml of PBS was intraperitoneally injected into each mouse. 1 μg of LPS and 100 mg/kg of ammonium glycyrrhizinate (GR; Abcam Inc., Cambridge, UK) dissolved in 0.1 ml of PBS were injected intraperitoneally (i.p.) into mice of the LPS+GR group, and 12 hours after the injection, 100 mg/kg of ammonium glycyrrhizinate dissolved in 0.1 ml of PBS was intraperitoneally injected into each mouse.
(§2) It was determined whether TLR4 expression levels were inhibited when mice with sepsis induced by LPS were treated with glycyrrhizin. The expression level of Toll-like receptor 4 (TLR4) was confirmed using immunohistochemistry and western blot analysis.
Specifically, for immunohistochemical staining for TLR4, the heart or lung tissues of mice of each experimental group of Example 1 were cut to 4 μm after deparaffinization treatment. […] TLR4 intensity was quantified using NIH Image J software.

[2] = test system: Toll-like receptor 4 (TLR4); assay: Western blotting of TLR4 in heart or lung tissues; format: in vivo, C57BL/6 mice
Experimental: as §1, §2
Western blotting was performed to confirm the intensity of TLR4 staining. […] Band intensity was quantified using Luminescent Image Analyzer LAS-3000 (FUJIFILM Medical Systems, Hanover Park, Ill., USA). The density of each band was analyzed using NIH Image J software.

[3] = parenthesised line under cell number

Substance: lipopolysaccharide [LPS]
- CD11b + Gr1 myeloid cells (number of cells) (myeloid cells): 16,500 ± 400
- MDSCs (number of cells) (myeloid cells): 5,200 ± 300
- MDSCs/CD11b + Gr1 myeloid cells × 100 (%) (myeloid cells): 32.45 ± 2.69%
- Total cell count (myeloid cells): 47,300 ± 1,200
- CD11b + Gr1 myeloid cells (value in parentheses) (myeloid cells; [3]): (34.61 ± 4.51)
- MDSCs (value in parentheses) (myeloid cells; [3]): (11.23 ± 1.25)
- IL-1β (IL-1β; BALF): 164.82 ± 17.81 pg/µL
- IL-1β (IL-1β; Blood): 126.28 ± 7.61 pg/µL
- expression level of TLR4 by immunohistochemistry [1]: significantly higher in both the heart and the lungs compared to the control
- TLR4 intensity by western blotting ([2]; heart): 403.9±29.3
- TLR4 intensity by western blotting ([2]; lungs): 350.7±21.3
